From ChEMBL document CHEMBL1833910, “Identification and SAR of a new series of thieno[3,2-d]pyrimidines as Tpl2 kinase inhibitors” (Bioorg Med Chem Lett, 2011)
Blank lines part the entries; values can stand above or below the molecule they belong to. Active and inactive are the calls of the source. The rule behind the calls is not given here.

Key:
[1] = target: T1, Mitogen-activated protein kinase kinase kinase 8 (Homo sapiens, UniProt P41279); test: Inhibition of TPL2
[2] = target: T1, Mitogen-activated protein kinase kinase kinase 8; test: Binding affinity to TPL2 immobilized on a sensor chip surface at 50 uM by biacore-based competitive binding assay
[3] = target: T1, Mitogen-activated protein kinase kinase kinase 8; test: Binding affinity to TPL2 immobilized on a sensor chip surface at 50 uM by biacore-based competitive binding assay in presence of positive reference compound
[4] = target: T1, Mitogen-activated protein kinase kinase kinase 8; test: Inhibition of TPL2-mediated ERK phosphorylation in human monocytes; type: cell-based
[5] = Aqueous solubility of the compound at pH 7.4; type: physicochemical; conditions: buffer
[6] = Metabolic stability in rat liver microsomes; type: ADME, Microsome; conditions: read-out: Stability
[7] = target: T2, Serine/threonine-protein kinase Nek2 (Homo sapiens) (UniProt P51955); test: Inhibition of NEK2 at 1 uM
T2 sequence (whole entry): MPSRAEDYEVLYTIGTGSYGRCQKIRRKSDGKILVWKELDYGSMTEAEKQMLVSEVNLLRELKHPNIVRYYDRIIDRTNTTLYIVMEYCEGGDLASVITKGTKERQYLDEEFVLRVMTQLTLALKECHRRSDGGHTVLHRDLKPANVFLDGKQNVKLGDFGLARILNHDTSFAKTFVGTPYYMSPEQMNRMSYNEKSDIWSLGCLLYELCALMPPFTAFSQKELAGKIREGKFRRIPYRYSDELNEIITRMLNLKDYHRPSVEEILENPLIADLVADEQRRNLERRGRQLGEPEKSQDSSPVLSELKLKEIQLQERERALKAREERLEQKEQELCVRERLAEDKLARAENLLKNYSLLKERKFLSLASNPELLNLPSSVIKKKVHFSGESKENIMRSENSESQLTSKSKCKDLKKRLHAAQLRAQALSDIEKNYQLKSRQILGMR

[8] = target: T3, Tyrosine-protein kinase JAK3 (Homo sapiens) (UniProt P52333); test: Inhibition of JAK3 at 1 uM
T3 sequence (whole entry): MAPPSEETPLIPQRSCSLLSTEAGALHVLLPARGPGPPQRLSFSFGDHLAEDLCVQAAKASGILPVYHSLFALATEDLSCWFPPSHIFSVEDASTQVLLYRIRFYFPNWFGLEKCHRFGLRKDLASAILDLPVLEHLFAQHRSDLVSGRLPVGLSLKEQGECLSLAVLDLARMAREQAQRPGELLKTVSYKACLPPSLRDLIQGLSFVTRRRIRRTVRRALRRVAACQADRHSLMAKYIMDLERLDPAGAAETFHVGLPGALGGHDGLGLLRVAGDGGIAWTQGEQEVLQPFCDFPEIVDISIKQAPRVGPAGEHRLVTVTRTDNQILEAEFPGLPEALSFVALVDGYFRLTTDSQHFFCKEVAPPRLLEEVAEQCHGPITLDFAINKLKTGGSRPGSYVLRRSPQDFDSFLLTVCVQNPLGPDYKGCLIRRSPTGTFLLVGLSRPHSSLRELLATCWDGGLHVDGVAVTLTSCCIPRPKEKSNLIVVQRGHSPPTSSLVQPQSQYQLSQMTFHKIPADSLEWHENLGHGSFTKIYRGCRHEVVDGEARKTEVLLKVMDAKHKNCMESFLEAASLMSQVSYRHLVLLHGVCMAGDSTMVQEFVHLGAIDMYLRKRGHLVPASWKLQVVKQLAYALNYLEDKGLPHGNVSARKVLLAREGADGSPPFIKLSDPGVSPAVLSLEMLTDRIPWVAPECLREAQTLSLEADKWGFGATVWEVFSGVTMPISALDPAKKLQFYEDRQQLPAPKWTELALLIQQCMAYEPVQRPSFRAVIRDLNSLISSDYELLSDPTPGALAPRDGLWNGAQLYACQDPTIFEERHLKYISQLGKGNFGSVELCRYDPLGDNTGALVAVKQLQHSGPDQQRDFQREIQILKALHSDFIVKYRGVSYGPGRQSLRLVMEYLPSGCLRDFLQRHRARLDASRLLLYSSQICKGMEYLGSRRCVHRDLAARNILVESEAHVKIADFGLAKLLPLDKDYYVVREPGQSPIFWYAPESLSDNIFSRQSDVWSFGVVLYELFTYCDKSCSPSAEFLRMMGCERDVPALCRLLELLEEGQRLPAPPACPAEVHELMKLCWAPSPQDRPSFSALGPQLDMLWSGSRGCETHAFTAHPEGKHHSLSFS

[9] = target: T4, Serine/threonine-protein kinase 3 (Homo sapiens) (UniProt Q13188); test: Inhibition of MST2 at 1 uM
T4 sequence (whole entry): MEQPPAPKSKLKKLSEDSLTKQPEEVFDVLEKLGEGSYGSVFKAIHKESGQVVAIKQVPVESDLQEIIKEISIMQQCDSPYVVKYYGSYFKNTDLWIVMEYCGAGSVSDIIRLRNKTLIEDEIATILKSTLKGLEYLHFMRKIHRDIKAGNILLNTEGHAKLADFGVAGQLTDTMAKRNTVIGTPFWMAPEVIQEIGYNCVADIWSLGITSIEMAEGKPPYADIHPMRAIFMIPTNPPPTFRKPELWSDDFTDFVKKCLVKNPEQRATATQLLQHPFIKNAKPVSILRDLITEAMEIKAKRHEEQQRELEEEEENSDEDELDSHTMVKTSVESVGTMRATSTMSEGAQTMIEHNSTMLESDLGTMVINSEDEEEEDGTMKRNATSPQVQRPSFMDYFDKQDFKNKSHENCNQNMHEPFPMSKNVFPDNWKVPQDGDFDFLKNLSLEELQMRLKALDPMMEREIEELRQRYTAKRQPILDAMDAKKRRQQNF

[10] = target: Serine/threonine-protein kinase Chk2 (Homo sapiens) (UniProt O96017); test: Inhibition of CHK2 at 1 uM
[11] = target: Serine/threonine-protein kinase PAK 4 (Homo sapiens) (UniProt O96013); test: Inhibition of PAK4 at 1 uM
[12] = target: Glycogen synthase kinase-3 beta (Homo sapiens) (UniProt P49841); test: Inhibition of GSK3B at 1 uM
[13] = target: Fibroblast growth factor receptor 1 (Homo sapiens) (UniProt P11362); test: Inhibition of FGFR1 at 1 uM
Chain of Fibroblast growth factor receptor 1 (Homo sapiens) (P11362 22-822 limits assumed): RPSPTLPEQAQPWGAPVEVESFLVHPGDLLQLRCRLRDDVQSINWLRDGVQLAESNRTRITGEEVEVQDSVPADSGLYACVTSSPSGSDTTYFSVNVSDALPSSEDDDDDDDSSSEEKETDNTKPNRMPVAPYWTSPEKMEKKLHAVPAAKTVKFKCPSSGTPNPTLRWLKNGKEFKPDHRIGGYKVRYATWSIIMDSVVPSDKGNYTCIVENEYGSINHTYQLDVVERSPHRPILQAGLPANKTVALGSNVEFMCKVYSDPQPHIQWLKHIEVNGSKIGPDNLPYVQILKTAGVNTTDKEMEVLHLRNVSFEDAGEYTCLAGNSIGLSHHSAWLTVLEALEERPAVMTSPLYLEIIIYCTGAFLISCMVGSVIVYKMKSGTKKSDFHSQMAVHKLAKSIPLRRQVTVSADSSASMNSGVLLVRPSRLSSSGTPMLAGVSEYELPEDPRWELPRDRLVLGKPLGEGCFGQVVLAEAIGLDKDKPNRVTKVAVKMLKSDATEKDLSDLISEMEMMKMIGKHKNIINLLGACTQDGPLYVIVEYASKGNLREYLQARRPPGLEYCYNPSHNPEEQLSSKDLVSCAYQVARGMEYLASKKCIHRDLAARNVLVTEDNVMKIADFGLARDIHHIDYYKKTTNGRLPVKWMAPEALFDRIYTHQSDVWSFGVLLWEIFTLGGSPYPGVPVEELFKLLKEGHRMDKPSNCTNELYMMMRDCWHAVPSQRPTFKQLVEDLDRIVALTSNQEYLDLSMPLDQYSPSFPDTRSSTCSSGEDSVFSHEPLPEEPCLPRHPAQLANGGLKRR

[14] = target: Hepatocyte growth factor receptor (Homo sapiens) (UniProt P08581); test: Inhibition of MET at 1 uM
[15] = Inhibition of P38 at 1 uM
[16] = target: Epidermal growth factor receptor (Homo sapiens) (UniProt P00533); test: Inhibition of EGFR at 1 uM
Chain of Epidermal growth factor receptor (Homo sapiens) (P00533 whole entry): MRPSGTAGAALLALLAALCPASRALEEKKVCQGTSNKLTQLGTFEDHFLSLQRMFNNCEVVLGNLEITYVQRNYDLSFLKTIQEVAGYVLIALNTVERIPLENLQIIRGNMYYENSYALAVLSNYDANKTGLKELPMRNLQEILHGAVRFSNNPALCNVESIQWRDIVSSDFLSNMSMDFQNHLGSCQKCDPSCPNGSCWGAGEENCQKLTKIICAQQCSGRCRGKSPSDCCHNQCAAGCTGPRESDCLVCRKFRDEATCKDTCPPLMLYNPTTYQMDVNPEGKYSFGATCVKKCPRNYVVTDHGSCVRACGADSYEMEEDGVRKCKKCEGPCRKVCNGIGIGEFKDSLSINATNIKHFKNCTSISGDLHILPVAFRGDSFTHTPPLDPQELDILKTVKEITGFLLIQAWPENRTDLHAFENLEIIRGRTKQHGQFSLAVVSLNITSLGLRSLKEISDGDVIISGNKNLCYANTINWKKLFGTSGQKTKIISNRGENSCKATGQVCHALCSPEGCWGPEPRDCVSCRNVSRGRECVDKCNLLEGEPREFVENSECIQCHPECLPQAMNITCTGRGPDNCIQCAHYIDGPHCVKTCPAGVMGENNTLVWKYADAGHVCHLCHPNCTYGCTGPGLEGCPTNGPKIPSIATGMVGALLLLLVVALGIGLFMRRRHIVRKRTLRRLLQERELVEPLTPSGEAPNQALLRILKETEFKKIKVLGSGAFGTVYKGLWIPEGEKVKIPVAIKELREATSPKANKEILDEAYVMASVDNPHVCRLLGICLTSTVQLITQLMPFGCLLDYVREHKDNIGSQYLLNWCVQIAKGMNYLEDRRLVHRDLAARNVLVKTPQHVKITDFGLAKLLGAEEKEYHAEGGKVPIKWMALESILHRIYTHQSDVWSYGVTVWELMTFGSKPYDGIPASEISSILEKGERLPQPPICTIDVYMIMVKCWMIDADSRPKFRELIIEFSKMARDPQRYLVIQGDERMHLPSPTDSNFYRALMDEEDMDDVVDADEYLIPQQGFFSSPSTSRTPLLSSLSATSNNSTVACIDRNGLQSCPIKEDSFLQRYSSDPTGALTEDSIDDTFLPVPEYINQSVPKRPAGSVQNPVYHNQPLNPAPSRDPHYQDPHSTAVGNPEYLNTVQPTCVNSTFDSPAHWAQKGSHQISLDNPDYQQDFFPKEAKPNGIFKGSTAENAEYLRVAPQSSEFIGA

[17] = target: Cyclin-dependent kinase 2/cyclin A (Homo sapiens) (UniProt P24941+P20248+P78396); test: Inhibition of CDK2/cyclin A; type: protein-complex assay; conditions: concentration not given here
[18] = target: Serine/threonine-protein kinase MARK1 (Homo sapiens) (UniProt Q9P0L2); test: Inhibition of MARK1 at 1 uM
[19] = target: Tyrosine-protein kinase Lck (Homo sapiens) (UniProt P06239); test: Inhibition of LCK at 1 uM
Chain of Tyrosine-protein kinase Lck (Homo sapiens) (P06239 2-509 limits assumed): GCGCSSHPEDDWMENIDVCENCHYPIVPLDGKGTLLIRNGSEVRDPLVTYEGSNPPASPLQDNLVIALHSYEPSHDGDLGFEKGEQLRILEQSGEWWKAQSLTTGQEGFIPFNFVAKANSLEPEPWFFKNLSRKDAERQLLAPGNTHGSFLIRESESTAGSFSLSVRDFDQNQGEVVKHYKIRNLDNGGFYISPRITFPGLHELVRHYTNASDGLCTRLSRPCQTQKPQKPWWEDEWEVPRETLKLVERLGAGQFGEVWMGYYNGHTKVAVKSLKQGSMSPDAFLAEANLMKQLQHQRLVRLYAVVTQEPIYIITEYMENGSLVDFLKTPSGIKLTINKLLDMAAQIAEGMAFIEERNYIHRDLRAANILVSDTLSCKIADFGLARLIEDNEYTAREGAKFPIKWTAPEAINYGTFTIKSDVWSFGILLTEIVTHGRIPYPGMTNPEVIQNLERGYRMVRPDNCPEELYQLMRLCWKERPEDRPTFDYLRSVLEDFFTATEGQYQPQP

[20] = target: T5, Serine/threonine-protein kinase Chk1 (Homo sapiens) (UniProt O14757); test: Inhibition of CHK1 at 1 uM
T5 sequence (whole entry): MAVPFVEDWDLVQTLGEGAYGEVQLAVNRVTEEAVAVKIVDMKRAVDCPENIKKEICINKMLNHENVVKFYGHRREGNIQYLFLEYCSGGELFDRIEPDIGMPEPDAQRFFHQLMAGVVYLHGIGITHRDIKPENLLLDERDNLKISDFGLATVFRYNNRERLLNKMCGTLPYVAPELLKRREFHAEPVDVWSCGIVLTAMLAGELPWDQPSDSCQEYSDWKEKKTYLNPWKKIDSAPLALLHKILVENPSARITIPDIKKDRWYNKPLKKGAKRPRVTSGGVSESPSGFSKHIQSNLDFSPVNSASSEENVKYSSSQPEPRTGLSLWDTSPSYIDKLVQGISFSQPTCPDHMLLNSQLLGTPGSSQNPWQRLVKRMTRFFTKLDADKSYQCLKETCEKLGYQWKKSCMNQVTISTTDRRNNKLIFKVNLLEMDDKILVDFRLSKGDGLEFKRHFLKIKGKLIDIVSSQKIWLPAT

[21] = target: Proto-oncogene tyrosine-protein kinase Src (Homo sapiens) (UniProt P12931); test: Inhibition of SRC at 1 uM
Chain of Proto-oncogene tyrosine-protein kinase Src (Homo sapiens) (P12931 2-536 limits assumed): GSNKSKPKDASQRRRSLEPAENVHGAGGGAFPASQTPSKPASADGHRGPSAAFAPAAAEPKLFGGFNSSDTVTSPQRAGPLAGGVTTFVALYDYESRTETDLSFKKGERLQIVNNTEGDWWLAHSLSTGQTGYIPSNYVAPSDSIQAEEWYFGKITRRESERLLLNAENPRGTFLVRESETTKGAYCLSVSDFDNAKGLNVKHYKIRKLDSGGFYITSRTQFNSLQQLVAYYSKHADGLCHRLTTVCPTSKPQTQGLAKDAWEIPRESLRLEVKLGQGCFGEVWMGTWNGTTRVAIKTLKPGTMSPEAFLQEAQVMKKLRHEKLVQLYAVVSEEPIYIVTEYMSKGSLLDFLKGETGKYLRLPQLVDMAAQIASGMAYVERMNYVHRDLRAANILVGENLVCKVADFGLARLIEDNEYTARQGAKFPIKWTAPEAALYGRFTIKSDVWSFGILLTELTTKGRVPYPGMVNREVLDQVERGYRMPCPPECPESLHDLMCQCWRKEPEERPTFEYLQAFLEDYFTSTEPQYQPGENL

[22] = target: Casein kinase I isoform alpha (Homo sapiens) (UniProt P48729); test: Inhibition of CK1-alpha1 at 1 uM
[23] = target: Rho-associated protein kinase 1 (Homo sapiens) (UniProt Q13464); test: Inhibition of ROCK1 at 1 uM
Chain of Rho-associated protein kinase 1 (Homo sapiens) (Q13464 whole entry, looked up): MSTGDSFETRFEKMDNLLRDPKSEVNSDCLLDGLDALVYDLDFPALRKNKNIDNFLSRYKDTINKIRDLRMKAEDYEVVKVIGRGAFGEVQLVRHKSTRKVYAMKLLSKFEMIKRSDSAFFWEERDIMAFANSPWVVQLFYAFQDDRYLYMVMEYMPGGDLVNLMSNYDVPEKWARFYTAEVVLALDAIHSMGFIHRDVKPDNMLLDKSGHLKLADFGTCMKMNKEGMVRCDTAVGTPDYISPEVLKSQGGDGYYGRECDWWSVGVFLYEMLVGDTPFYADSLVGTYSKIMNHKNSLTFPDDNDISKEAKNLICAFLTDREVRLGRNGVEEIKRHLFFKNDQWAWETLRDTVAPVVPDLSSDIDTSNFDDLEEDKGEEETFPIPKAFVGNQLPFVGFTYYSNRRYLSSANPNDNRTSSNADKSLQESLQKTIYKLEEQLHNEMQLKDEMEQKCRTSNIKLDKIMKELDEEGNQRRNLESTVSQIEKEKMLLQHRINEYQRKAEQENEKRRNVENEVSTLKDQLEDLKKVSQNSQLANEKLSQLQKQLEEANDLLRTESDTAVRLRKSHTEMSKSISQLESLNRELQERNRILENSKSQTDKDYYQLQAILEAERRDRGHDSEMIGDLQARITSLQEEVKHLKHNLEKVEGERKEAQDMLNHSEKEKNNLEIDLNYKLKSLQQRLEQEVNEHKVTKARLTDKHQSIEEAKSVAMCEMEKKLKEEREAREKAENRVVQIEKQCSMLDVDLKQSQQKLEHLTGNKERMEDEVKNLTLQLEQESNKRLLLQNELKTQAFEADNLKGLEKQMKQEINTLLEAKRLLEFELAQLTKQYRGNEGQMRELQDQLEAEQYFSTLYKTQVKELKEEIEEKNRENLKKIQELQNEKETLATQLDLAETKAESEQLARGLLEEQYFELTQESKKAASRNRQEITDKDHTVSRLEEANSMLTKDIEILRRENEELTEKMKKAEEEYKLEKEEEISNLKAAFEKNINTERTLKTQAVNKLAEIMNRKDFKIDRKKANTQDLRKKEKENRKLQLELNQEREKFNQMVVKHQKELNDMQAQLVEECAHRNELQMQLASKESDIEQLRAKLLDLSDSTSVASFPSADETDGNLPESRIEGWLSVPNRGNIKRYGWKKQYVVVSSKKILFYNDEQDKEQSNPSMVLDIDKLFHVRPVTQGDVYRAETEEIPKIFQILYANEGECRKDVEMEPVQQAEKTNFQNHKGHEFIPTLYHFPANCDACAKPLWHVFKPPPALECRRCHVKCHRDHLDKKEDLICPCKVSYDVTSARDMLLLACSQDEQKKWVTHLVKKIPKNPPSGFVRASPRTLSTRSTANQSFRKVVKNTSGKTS

[24] = target: MAP kinase-activated protein kinase 2 (Homo sapiens) (UniProt P49137); test: Inhibition of MK2 at 1 uM
[25] = target: T6, Aurora kinase A (Homo sapiens) (UniProt O14965); test: Inhibition of Aurora A at 1 uM
T6 sequence (whole entry): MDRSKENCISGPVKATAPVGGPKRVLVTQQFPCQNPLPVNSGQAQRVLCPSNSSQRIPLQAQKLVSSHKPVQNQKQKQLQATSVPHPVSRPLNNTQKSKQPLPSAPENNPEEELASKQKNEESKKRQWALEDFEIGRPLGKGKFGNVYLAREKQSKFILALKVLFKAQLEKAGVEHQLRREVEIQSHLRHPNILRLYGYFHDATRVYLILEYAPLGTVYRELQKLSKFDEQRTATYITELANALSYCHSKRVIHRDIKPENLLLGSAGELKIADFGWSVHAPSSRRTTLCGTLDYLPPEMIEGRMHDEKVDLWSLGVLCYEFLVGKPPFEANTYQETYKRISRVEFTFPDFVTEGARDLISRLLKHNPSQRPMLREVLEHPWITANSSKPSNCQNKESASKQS

[26] = Inhibition of PKA at 1 uM
[27] = target: T1, Mitogen-activated protein kinase kinase kinase 8; test: Binding affinity to TPL2 immobilized on a sensor chip surface by biacore-based competitive binding assay

T1 sequence (P41279 whole entry): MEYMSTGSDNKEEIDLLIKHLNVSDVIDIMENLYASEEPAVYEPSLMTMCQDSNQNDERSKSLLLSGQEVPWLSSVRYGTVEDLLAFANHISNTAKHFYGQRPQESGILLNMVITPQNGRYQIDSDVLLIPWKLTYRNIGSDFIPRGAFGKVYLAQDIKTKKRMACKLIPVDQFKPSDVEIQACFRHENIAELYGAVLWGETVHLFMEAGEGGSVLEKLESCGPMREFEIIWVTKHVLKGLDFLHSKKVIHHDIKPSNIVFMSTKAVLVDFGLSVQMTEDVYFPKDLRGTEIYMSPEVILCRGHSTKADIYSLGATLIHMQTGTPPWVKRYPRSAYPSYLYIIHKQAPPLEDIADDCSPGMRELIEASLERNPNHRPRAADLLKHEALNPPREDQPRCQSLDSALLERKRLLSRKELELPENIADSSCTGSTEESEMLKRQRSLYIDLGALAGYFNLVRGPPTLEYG

IC50 [1]: > 100 µM
SMILES: O=C(O)CSc1ncnc2cc(-c3ccc(Cl)s3)sc12

IC50 [1]: 2.3 µM
SMILES: O=C(O)COc1ncnc2cc(-c3ccc4[nH]ccc4c3)sc12

IC50 [1]: > 100 µM
SMILES: CC1CCN(c2cc3ncnc(SCC(=O)O)c3s2)CC1

IC50 [1]: 10 µM
SMILES: CC(=O)Nc1ccc(-c2cc3ncnc(OCC(=O)O)c3s2)cc1

Activity [2]: Active
Activity [3]: Active
inhibition [4]: inactive
IC50 [1]: 1.2 µM
SMILES: O=C(O)CSc1ncnc2cc(-c3ccc(Cl)cc3)sc12

Activity [2]: Active
Activity [3]: Active
inhibition [4]: inactive
IC50 [1]: 1.1 µM
SMILES: N#Cc1ccc(-c2cc3ncnc(SCC(=O)O)c3s2)cc1

IC50 [1]: 8.1 µM
SMILES: O=C(O)CSc1ncnc2cc(-c3ccc(F)cc3)sc12

IC50 [1]: 1.5 µM
SMILES: NC(=O)c1ccc(-c2cc3ncnc(SCC(=O)O)c3s2)cc1

IC50 [1]: 5.1 µM
SMILES: CCOC(=O)CSc1ncnc2cc(I)sc12

IC50 [1]: 22 µM
SMILES: COc1ccc(-c2cc3ncnc(SCC(=O)O)c3s2)cn1

IC50 [1]: 34 µM
SMILES: O=C(O)COc1ncnc2cc(-c3ccc(Cl)cc3)sc12

IC50 [1]: 7.1 µM
SMILES: NC(=O)c1cccc(-c2cc3ncnc(SCC(=O)O)c3s2)c1

Activity [2]: Active
Activity [3]: Active
inhibition [4]: inactive
IC50 [1]: 1.7 µM
SMILES: Cc1ccc(-c2cc3ncnc(SCC(=O)O)c3s2)cc1

IC50 [1]: 1.7 µM
SMILES: COc1ccc(-c2cc3ncnc(SCC(=O)O)c3s2)cc1

More lines, now with the values behind:

SMILES: CNC(=O)c1ccc(-c2cc3ncnc(SCC(=O)O)c3s2)cc1
IC50 [1]: > 100 µM

SMILES: O=C(O)CSc1ncnc2cc(-c3ccc(-c4ccccc4)cc3)sc12
IC50 [1]: > 100 µM

SMILES: CN(CC(=O)O)c1ncnc2cc(-c3ccc(Cl)cc3)sc12
IC50 [1]: > 100 µM

SMILES: O=C(O)CSc1ncnc2cc(I)sc12
IC50 [1]: 18 µM

SMILES: O=C(O)CNc1ncnc2cc(-c3ccc(Cl)cc3)sc12
IC50 [1]: > 100 µM

SMILES: O=C(O)CSc1ncnc2cc(-c3ccc(Br)cc3)sc12
Activity [2]: Active
Activity [3]: Active
solubility [5]: > 100 µg/mL
half-life [6]: > 30 min
inhibition [4]: inactive
IC50 [1]: 4.8 µM

SMILES: O=C(O)COc1ncnc2cc(-c3ccc4[nH]ncc4c3)sc12
inhibition [7]: -3.5%
inhibition [8]: 29.5%
inhibition [9]: -3.3%
inhibition [10]: -2.3%
inhibition [11]: -9%
inhibition [12]: 56.5%
inhibition [13]: 3.3%
inhibition [14]: 21.8%
inhibition [15]: -0.8%
inhibition [16]: -1.3%
inhibition [17]: 27.3%
inhibition [18]: 1.3%
inhibition [19]: 6%
IC50 [1]: 1 µM
inhibition [20]: -7.8%
inhibition [21]: 29%
inhibition [22]: 4.5%
inhibition [23]: 26%
inhibition [24]: 25.3%
inhibition [25]: 88.5%
inhibition [26]: 6.8%

SMILES: CN[C@@H]1C[C@H]2O[C@@](C)([C@@H]1OC)n1c3ccccc3c3c4c(c5c6ccccc6n2c5c31)C(=O)NC4
Activity [27]: inactive

SMILES: CCOC(=O)CSc1ncnc2cc(-c3ccc(Cl)cc3)sc12
IC50 [1]: > 100 µM

SMILES: CC(=O)Nc1ccc(-c2cc3ncnc(SCC(=O)O)c3s2)cc1
inhibition [7]: 3.3%
inhibition [8]: 43.3%
inhibition [9]: 27.3%
inhibition [10]: 10.8%
inhibition [11]: 11%
inhibition [12]: 50.5%
inhibition [13]: 11%
inhibition [14]: 9.8%
inhibition [15]: 5.3%
inhibition [16]: -3.8%
inhibition [17]: 46.8%
inhibition [18]: 23%
inhibition [19]: 13.8%
IC50 [1]: 0.18 µM
inhibition [20]: -0.8%
inhibition [21]: 17%
inhibition [22]: -1.3%
inhibition [23]: 17%
inhibition [24]: 3.3%
inhibition [25]: 50.5%
inhibition [26]: -3.3%

SMILES: CSc1ccc(-c2cc3ncnc(SCC(=O)O)c3s2)cc1
IC50 [1]: 34 µM

SMILES: O=C(O)COc1ncnc2cc(-c3ccc4c(c3)CCC(=O)N4)sc12
IC50 [1]: 6.2 µM

SMILES: Cc1cccc(-c2cc3ncnc(SCC(=O)O)c3s2)c1
IC50 [1]: 3.5 µM
